Measurements as given in paper PMC2707616, “Platensimycin Activity against Mycobacterial β-Ketoacyl-ACP Synthases” (PLoS ONE, 2009).
Converted amounts (≈) assume the structure as drawn. Read-outs that look alike come from different tables or passages of the source.

Experiments:
KasA = details: cited from earlier work
KasB = KasB ref 25; cited from earlier work
S. aureus FabH = tested on: S. aureus FabH; design: method as in PMID 17456595; details: S. aureus FabH ref 2; cited from earlier work
M. tuberculosis CDC1551 = experiment: microbe, parasite or virus in culture; type: cell-based; details: Mycobacterium tuberculosis; M. tuberculosis CDC1551, solid medium
M. tuberculosis H37Rv = experiment: microbe, parasite or virus in culture; type: cell-based; details: Mycobacterium tuberculosis, solid medium
M. smegmatis mc^2155 [1] = experiment: MIC99 by Alamar Blue testing, liquid medium; type: cell-based, Mycobacterium smegmatis; details: Mycolicibacterium smegmatis
M. smegmatis pVV16 = experiment: MIC99 by Alamar Blue testing, vector control strain; type: cell-based, Mycobacterium smegmatis; details: Mycolicibacterium smegmatis
M. smegmatis pVV16- KasA = experiment: microbe, parasite or virus in culture; type: cell-based, Mycobacterium smegmatis
M. smegmatis pVV16- KasB = experiment: microbe, parasite or virus in culture; type: cell-based, Mycobacterium smegmatis
[2] = tested on: M. smegmatis pVV16- KasAB; experiment: microbe, parasite or virus in culture; type: cell-based, Mycobacterium smegmatis; details: Mycolicibacterium smegmatis, PVV16KASAB
M. smegmatis pVV16- FabH = experiment: microbe, parasite or virus in culture; type: cell-based, Mycobacterium smegmatis; details: Mycolicibacterium smegmatis, PVV16FABH
M. bovis BCG = experiment: microbe, parasite or virus in culture; type: cell-based
M. bovis BCG pVV16 = experiment: microbe, parasite or virus in culture; type: cell-based; details: Mycobacterium tuberculosis variant bovis BCG
M. bovis BCG pVV16- KasA = experiment: microbe, parasite or virus in culture; type: cell-based; details: Mycobacterium tuberculosis variant bovis BCG
M. bovis BCG pVV16- KasB = experiment: microbe, parasite or virus in culture; type: cell-based; details: Mycobacterium tuberculosis variant bovis BCG
M. bovis BCGΔ KasB = type: cell-based, Mycobacterium bovis BCG
Mt-KasA = biological target: T1, Mt-KasA (Mycobacterium tuberculosis, UniProt P9WQD9); experiment: biochemical
T1 construct: made in house
T1 sequence (P9WQD9 whole entry): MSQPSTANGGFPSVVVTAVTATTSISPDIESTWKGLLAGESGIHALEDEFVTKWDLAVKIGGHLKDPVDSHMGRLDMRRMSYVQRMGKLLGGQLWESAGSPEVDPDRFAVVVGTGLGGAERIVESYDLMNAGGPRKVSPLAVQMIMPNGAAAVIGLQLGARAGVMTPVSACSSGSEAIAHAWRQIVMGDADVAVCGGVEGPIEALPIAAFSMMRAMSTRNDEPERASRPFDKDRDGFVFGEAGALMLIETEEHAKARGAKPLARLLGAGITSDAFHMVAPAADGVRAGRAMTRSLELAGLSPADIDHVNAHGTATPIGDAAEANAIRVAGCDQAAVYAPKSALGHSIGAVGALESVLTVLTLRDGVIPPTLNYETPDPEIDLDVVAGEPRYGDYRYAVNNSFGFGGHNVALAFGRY

Mt-KasB = biological target: T2, Mt-KasB (Mycobacterium tuberculosis, UniProt P9WQD7); experiment: biochemical
T2 construct: made in house
T2 sequence (P9WQD7 whole entry): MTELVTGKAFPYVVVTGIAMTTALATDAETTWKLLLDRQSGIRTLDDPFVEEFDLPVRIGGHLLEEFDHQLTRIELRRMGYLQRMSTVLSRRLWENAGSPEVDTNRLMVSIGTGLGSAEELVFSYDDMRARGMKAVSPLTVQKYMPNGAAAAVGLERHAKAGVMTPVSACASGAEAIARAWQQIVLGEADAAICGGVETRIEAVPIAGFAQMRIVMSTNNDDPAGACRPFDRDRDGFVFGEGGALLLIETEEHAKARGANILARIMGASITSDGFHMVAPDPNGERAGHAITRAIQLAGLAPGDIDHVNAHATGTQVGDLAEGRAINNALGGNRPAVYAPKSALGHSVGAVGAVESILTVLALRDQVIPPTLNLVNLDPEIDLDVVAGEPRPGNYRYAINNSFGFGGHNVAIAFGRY

Mt-FabH = biological target: T3, Mt-FabH (Mycobacterium tuberculosis, UniProt P9WNG3); experiment: biochemical
T3 construct: made in house
T3 sequence (P9WNG3 whole entry): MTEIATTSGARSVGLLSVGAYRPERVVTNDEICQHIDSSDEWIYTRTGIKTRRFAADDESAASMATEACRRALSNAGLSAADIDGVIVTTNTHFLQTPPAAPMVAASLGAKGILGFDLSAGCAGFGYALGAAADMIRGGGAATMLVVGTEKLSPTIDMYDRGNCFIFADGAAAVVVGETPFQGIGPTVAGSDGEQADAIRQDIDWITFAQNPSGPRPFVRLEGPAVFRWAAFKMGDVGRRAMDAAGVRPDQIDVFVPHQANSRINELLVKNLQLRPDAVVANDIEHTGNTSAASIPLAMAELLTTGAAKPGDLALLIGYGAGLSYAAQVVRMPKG

Cg-FAS-I = experiment: FAS-I activity in crude cell free extracts; type: biochemical, C. glutamicum; details: crude cell free extract, standard error in brackets
Procedure: FAS-I extracts from M. smegmatis and C. glutamicum were prepared as described previously. FAS-I experiments were conducted as described using the 40–80% ammonium sulfate fraction. Briefly, platensimycin was titred (0.1–150 µg/ml) into the standard reaction as follows: 100 mM potassium phosphate pH 7.0, 5 mM EDTA, 5 mM dithiothreitol, 300 µM acetyl-CoA, 100 µM NADPH, 100 µM NADH, 1 µM flavin mononucleotide, 500 µM α-cyclodextrin, 20 µM malonyl-CoA, 100,000 cpm of [2-^14C] malonyl-CoA, and 100 µl of the cytosolic enzyme preparation (1 mg of protein) in a total volume of 500 µl. Reactions were performed in triplicate at 37°C for 1 h and terminated by the addition of 500 µl of 20% potassium hydroxide in 50% methanol at 100°C for 30 min. Following acidification with 300 µl of 6 M HCl, the resultant [^14C]-labelled fatty acids were extracted three times with petroleum ether. The organic extracts were pooled, washed once with an equal volume of water, and dried in a scintillation vial prior to scintillation counting using 5 ml of EcoScintA (National Diagnostics, Hull, U.K.).

M. smegmatis = experiment: Growth and viable count (CFU) of cultures over 72 h, revival after washing; type: cell-based, Mycobacterium smegmatis
M. smegmatis mc^2155 [3] = type: cell-based, Mycobacterium smegmatis
C. glutamicum = experiment: Growth of cultures; type: cell-based; details: data not shown
Candida albicans = tested on: Candida albicans; design: method as in PMID 16710421; details: cited from earlier work
human FAS-I = tested on: human FAS-I; design: method as in earlier work; details: cited from earlier work
rat FAS-I = tested on: rat FAS-I; design: method as in earlier work; details: cited from earlier work
HeLa = details: mammalian cell toxicity ref 3; cited from earlier work

C=C/C(C)=C/[C@@]1(C)SC(=O)C(C)=C1O [TLM, thiolactomycin]
IC50 (KasA): 20 µM
IC50 (KasB): 90 µM

C=C1C[C@@]23C=CC(=O)[C@@](C)(CCC(=O)Nc4c(O)ccc(C(=O)O)c4O)[C@@H]2C[C@@H]1CC3 [platencin]
IC50 (S. aureus FabH): 9.17 µM

CC12C[C@@]34C=CC(=O)[C@@](C)(CCC(=O)Nc5c(O)ccc(C(=O)O)c5O)C3[C@H](CC1C4)O2 (stereo partly drawn) [platensimycin]
MIC99 (M. tuberculosis CDC1551): 12 µg/mL (≈ 27.2 µM)
MIC99 (M. tuberculosis H37Rv): 12 µg/mL (≈ 27.2 µM)
MIC99 (M. smegmatis mc^2155 [1]): 14 µg/mL (≈ 31.7 µM)
MIC99 (M. smegmatis pVV16): 14 µg/mL (≈ 31.7 µM)
increase in resistance (MIC) on Mt-KasA overexpression (M. smegmatis pVV16- KasA; MIC from 14 to 30 µg/ml): 2 fold
MIC99 (M. smegmatis pVV16- KasA; Mycolicibacterium smegmatis, PVV16KASA, M. smegmatis pVV16- KasA): 30 µg/mL (≈ 68 µM)
increase in the MIC on Mt-KasB overexpression (M. smegmatis pVV16- KasB; MIC to 124 µg/ml): 9 fold
MIC99 (M. smegmatis pVV16- KasB; Mycolicibacterium smegmatis, PVV16KASB, M. smegmatis pVV16- KasB): 124 µg/mL (≈ 281 µM)
MIC99 [2]: 126 µg/mL (≈ 285 µM)
MIC99 (M. smegmatis pVV16- FabH): 16 µg/mL (≈ 36.2 µM)
MIC99 (M. bovis BCG): >128 µg/mL
MIC99 (M. bovis BCG; Mycobacterium tuberculosis variant bovis BCG, read-out: MIC99): > 128 µg/mL
MIC99 (M. bovis BCG pVV16): > 128 µg/mL
MIC99 (M. bovis BCG pVV16- KasA): > 128 µg/mL
MIC99 (M. bovis BCG pVV16- KasB): > 128 µg/mL
MIC99 (M. bovis BCGΔ KasB): 61 µg/mL (≈ 138 µM)
IC50 (Mt-KasA): 4.53 µM
IC50 (Mt-KasA; standard error in brackets): 4.53 µM
IC50 (Mt-KasB): 9.51 µM
IC50 (Mt-KasB; standard error in brackets): 9.51 µM
IC50 (Mt-FabH): > 340 µM
IC50 (Cg-FAS-I): 6.5 (0.2) µg/ml
decrease in CFU (M. smegmatis; 14 µg/ml platensimycin, 72 hours, LB broth): 2 log
nature of the antibiotic effect (revival after washing and re-inoculation) (M. smegmatis; cells exposed for 72 hours): bacteristatic
Biosynthesis of fatty acids and α- and epoxy-mycolic acids (M. smegmatis mc^2155 [3]; 20–40 µg/ml, [14C]acetate labelling): significantly inhibited
α′-MAMEs level (M. smegmatis mc^2155 [3]; lower concentrations, 10–20 µg/ml): accumulation
synthesis of mycolate containing lipids GMM and TDM (M. smegmatis mc^2155 [3]; platensimycin-treated cultures, 20-40 µg/ml): reduced
growth of cultures of C. glutamicum (C. glutamicum): failed to inhibit growth
IC50 (S. aureus FabH): 67 µM
antifungal activity against Candida albicans (Candida albicans): > 64 µg/mL
human FAS-I inhibition in vitro (human FAS-I): inhibited
rat FAS-I inhibition in vitro (rat FAS-I): inhibited
IC50 of HeLa MTT (HeLa): > 1000 µg/mL
